According to ChEMBL document CHEMBL5518237, “Design of Novel 2-Phenylquinazolin-4-amines as Selective CYP1B1 Inhibitors for Overcoming Paclitaxel Resistance in A549 Cells” (J Med Chem, 2024):
Values belong to the compound of their own block, whether it stands above or below them. Active and inactive are the calls of the source. The rule behind the calls is not given here.

Assays:
CYP1B1 [1] = molecular target: T1, CYP1B1 (Homo sapiens, UniProt Q16678); assay: Inhibition of human recombinant CYP1B1 using 7-ethoxyresorufin as substrate at 0.01 uM preincubated with enzyme for 5 mins followed by fluorescent substrate and NADPH addition and measured after 35 mins by EROD assay; assay type: ADME; details: recombinant CYP1B1, probe 7-ethoxyresorufin, time 40 min
T1 sequence (Q16678 whole entry): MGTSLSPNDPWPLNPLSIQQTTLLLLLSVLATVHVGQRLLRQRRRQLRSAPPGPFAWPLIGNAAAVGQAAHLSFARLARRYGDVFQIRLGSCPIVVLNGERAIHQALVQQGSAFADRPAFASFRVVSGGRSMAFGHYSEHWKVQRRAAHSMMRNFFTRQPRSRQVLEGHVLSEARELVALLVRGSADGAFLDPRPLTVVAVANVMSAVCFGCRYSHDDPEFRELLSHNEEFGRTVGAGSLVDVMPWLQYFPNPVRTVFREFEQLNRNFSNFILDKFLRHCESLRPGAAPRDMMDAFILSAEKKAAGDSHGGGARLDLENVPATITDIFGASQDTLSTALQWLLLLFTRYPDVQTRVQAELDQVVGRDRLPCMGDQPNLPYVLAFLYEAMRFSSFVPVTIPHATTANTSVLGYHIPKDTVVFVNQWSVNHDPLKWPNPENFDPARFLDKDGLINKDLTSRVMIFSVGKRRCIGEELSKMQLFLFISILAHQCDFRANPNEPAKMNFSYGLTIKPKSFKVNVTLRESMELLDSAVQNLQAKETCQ

CYP1B1 [2] = molecular target: T1, CYP1B1; assay: Inhibition of human recombinant CYP1B1 using 7-ethoxyresorufin as substrate at 1 uM preincubated with enzyme for 5 mins followed by fluorescent substrate and NADPH addition and measured after 35 mins by EROD assay; assay type: ADME; details: recombinant CYP1B1, probe 7-ethoxyresorufin, time 40 min
Cytochrome P450 1B1 = molecular target: T2, Cytochrome P450 1B1 (Homo sapiens, UniProt Q16678); assay: Inhibition of human recombinant CYP1B1 using 7-ethoxyresorufin as substrate preincubated with enzyme for 5 mins followed by fluorescent substrate and NADPH addition and measured after 35 mins by EROD assay; assay type: ADME
T2 sequence (Q16678 whole entry): T1 sequence (Q16678 whole entry)

Cytochrome P450 1A1 = molecular target: T3, Cytochrome P450 1A1 (Homo sapiens, UniProt P04798); assay: Inhibition of human recombinant CYP1A1 using 7-ethoxyresorufin as substrate preincubated with enzyme for 5 mins followed by fluorescent substrate and NADPH addition and measured after 15 mins by EROD assay; assay type: ADME
T3 sequence (P04798 whole entry): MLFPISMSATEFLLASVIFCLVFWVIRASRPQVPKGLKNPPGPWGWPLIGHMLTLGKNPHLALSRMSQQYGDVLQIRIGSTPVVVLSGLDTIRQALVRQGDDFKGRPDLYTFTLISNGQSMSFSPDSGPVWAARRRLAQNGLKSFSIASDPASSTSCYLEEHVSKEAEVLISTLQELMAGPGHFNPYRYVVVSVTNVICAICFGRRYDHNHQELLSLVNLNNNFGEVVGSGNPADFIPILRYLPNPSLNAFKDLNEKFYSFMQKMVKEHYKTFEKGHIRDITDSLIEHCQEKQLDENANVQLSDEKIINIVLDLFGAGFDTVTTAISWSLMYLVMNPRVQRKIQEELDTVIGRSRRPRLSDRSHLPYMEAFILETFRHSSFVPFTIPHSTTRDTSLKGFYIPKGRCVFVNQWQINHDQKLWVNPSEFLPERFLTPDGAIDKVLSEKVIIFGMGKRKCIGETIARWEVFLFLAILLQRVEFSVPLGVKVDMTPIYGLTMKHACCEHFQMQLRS

Cytochrome P450 1A2 = molecular target: T4, Cytochrome P450 1A2 (Homo sapiens, UniProt P05177); assay: Inhibition of human recombinant CYP1A2 using 7-ethoxyresorufin as substrate preincubated with enzyme for 5 mins followed by fluorescent substrate and NADPH addition and measured after 50 mins by EROD assay; assay type: ADME
T4 sequence (P05177 whole entry): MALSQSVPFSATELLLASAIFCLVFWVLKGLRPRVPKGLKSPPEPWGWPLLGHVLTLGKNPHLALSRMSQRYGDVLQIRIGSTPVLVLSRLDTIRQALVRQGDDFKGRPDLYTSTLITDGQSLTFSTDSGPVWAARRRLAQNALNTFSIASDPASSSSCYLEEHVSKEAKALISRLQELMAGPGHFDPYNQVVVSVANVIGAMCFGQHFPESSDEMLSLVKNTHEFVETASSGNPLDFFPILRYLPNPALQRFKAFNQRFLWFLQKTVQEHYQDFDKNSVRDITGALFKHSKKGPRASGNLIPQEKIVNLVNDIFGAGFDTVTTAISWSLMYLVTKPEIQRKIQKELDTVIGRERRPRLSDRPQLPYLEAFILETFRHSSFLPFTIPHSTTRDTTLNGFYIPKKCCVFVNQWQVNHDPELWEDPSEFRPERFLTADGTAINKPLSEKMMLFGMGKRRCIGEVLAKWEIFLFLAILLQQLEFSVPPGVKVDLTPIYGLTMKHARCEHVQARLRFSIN

CYP1A1 versus CYP1B1 = assay: (§1) Selectivity ratio of IC50 for Inhibition of human recombinant CYP1A1 to IC50 for Inhibition of human recombinant CYP1B1; assay type: ADME; details: recombinant CYP1A1 and recombinant CYP1B1, read-out: Ratio IC50
CYP1A2 versus CYP1B1 = assay: (§2) Selectivity ratio of IC50 for Inhibition of human recombinant CYP1A2 to IC50 for Inhibition of human recombinant CYP1B1; assay type: ADME; details: recombinant CYP1A2 and recombinant CYP1B1, read-out: Ratio IC50
[3] = as §1; assay type: ADME; details: recombinant enzyme
[4] = as §2; assay type: ADME; details: recombinant enzyme
[5] = n-Octanol/water partition coefficient, logP of the compound by HPLC analysis; assay type: physicochemical
A549 [6] = assay: Cytotoxicity against human A549 cells assessed as reduction in cell viability at 0.625 to 20 uM incubated for 48 hrs by MTT assay; assay type: toxicity, cell-based; details: a549, 48 h, dose 0.625-20 µM
HEK-293T = assay: Cytotoxicity against human HEK293T cells assessed as reduction in cell viability at 0.625 to 20 uM incubated for 48 hrs by MTT assay; assay type: toxicity, cell-based; details: dose 0.625-20 µM
A549 [7] = assay: Induction of apoptosis in DMBA-stimulated PTX resistant human A549 cells assessed as apoptosis rate at 5 uM incubated for 24 hrs by flow cytometry (reference value: 6.67 +/- 1.03%); assay type: functional
A549 [8] = assay: Reversal of DMBA-stimulated PTX resistance in human A549 cells assessed as decrease in cell viability at 10 uM incubated for 24 hrs in presence of DMBA and paclitaxel by MTT assay; assay type: functional, cell-based
A549 [9] = assay: Inhibition of tumor metastasis in DMBA-stimulated PTX resistant human A549 cells assessed as inhibition of cell migration at 10 uM incubated for 48 hrs by wound healing assay; assay type: functional, cell-based
A549 [10] = assay: Inhibition of tumor metastasis in DMBA-stimulated PTX resistant human A549 cells assessed as inhibition of cell invasion at 10 uM incubated for 24 hrs by Transwell assay; assay type: functional, cell-based
A549 [11] = assay: Reversal of DMBA-stimulated PTX resistance in human A549 cells assessed as decrease in cell viability at 1.25 to 10 uM incubated for 24 hrs in presence of DMBA and paclitaxel by MTT assay; assay type: functional, cell-based; details: dose 1.25-10 µM
A549 [12] = assay: Inhibition of tumor metastasis in DMBA-stimulated PTX resistant human A549 cells assessed as inhibition of cell migration by measuring decrease in crawling ability of cells at 2.5 to 10 uM incubated for 48 hrs by wound healing assay; assay type: functional, cell-based; details: dose 2.5-10 µM
[13] = n-Octanol/PBS partition coefficient, log D of the radiolabeled compound at 0.37 MBq at pH 7.4 by gamma-counting analysis; assay type: physicochemical; details: octanol/water
[14] = Drug uptake in human HCT-116 cells using radiolabeled compound at 0.037 MBq incubated for 120 mins by gamma-counting analysis; assay type: ADME, cell-based; details: hct-116, 2 h
[15] = Drug uptake in human A549 cells using radiolabeled compound at 0.037 MBq incubated for 120 mins by gamma-counting analysis; assay type: ADME, cell-based; details: a549, 2 h
[16] = Drug uptake in human HEK293T cells using radiolabeled compound at 0.037 MBq incubated for 120 mins by gamma-counting analysis; assay type: ADME, cell-based; details: hek-293t, 2 h
[17] = n-octanol/water, read-out: logP

SMILES: Cc1ccc(-c2nc(N)c3ccccc3n2)cc1
inhibition at 35 min, 0.01 µM (CYP1B1 [1]): 89.6%
inhibition at 35 min, 1 µM (CYP1B1 [2]): 97.8%
IC50 (Cytochrome P450 1B1): 1.69 nM
IC50 (Cytochrome P450 1A1): 263 nM
IC50 (Cytochrome P450 1A2): 5340 nM
selectivity ratio (CYP1A1 versus CYP1B1): 156
selectivity ratio (CYP1A2 versus CYP1B1): 3160

SMILES: O=c1cc(-c2ccccc2)oc2c1ccc1ccccc12 [ALPHA-NAPHTHOFLAVONE]
inhibition at 35 min, 0.01 µM (CYP1B1 [1]): 61%
inhibition at 35 min, 1 µM (CYP1B1 [2]): 95.1%
IC50 (Cytochrome P450 1A1): 86.7 nM
Activity (A549 [8]): Active
Activity (A549 [7]): 15.53%
inhibition (A549 [9]): Active
inhibition (A549 [10]): Active

SMILES: FCCNc1nc(-c2ccc(I)cc2)nc2ccccc12
Activity (A549 [11]): Active
inhibition (A549 [12]): Active

SMILES: CCNc1nc(-c2ccc(I)cc2)nc2ccccc12
Activity (A549 [11]): Active
inhibition (A549 [12]): Active

SMILES: CNc1nc(-c2ccc(I)cc2)nc2ccccc12 [listing 1 of 2 here]
Activity (A549 [11]): Active
inhibition (A549 [12]): Active

SMILES: Nc1nc(-c2ccc(Br)cc2)nc2ccccc12
inhibition at 35 min, 0.01 µM (CYP1B1 [1]): 82.7%
inhibition at 35 min, 1 µM (CYP1B1 [2]): 96.4%
IC50 (Cytochrome P450 1B1): 0.49 nM
IC50 (Cytochrome P450 1A1): 104 nM
IC50 (Cytochrome P450 1A2): 1990 nM
selectivity ratio (CYP1A1 versus CYP1B1): 211
selectivity ratio (CYP1A2 versus CYP1B1): 4060
logP [5, 17]: 2.12

More lines, main results first:

inhibition at 35 min, 0.01 µM (CYP1B1 [1]): 96.6%
inhibition at 35 min, 1 µM (CYP1B1 [2]): 97.1%
IC50 (Cytochrome P450 1B1): 0.000168 nM
IC50 (Cytochrome P450 1A1): 27.4 nM
IC50 (Cytochrome P450 1A2): 827 nM
logP ([5]; octanol/water): 3.15
SMILES: CNc1nc(-c2ccc(I)cc2)nc2ccccc12.Cl
Ratio IC50 [3]: 1.63 10^5No_unit
Ratio IC50 [4]: 4.92 10^6No_unit
Activity (A549 [6]): Non-Toxic
Activity (HEK-293T): Non-Toxic
Activity (A549 [7]): 32.84%

inhibition at 35 min, 0.01 µM (CYP1B1 [1]): 90.1%
inhibition at 35 min, 1 µM (CYP1B1 [2]): 95.5%
IC50 (Cytochrome P450 1B1): 0.15 nM
IC50 (Cytochrome P450 1A1): 33.2 nM
IC50 (Cytochrome P450 1A2): 604 nM
logP [5, 17]: 3.91
SMILES: Cl.FCCNc1nc(-c2ccc(I)cc2)nc2ccccc12
selectivity ratio (CYP1A1 versus CYP1B1): 221
selectivity ratio (CYP1A2 versus CYP1B1): 4030
Activity (A549 [6]): Non-Toxic
Activity (HEK-293T): Non-Toxic
Activity (A549 [7]): 21.05%

IC50 (Cytochrome P450 1B1): 0.000747 nM
IC50 (Cytochrome P450 1A1): 26.5 nM
IC50 (Cytochrome P450 1A2): 1110 nM
logD [13]: 3.55
Drug uptake [14]: Active
Drug uptake [15]: Active
Drug uptake [16]: Active
SMILES: CNc1nc(-c2ccc(I)cc2)nc2ccccc12 [listing 2 of 2 here]
Ratio IC50 [3]: 3.54 10^4No_unit
Ratio IC50 [4]: 1.49 10^6No_unit

inhibition at 35 min, 0.01 µM (CYP1B1 [1]): 93.7%
inhibition at 35 min, 1 µM (CYP1B1 [2]): 95.2%
IC50 (Cytochrome P450 1A1): 85.8 nM
IC50 (Cytochrome P450 1A2): 1500 nM
logP [5, 17]: 3.81
SMILES: CCNc1nc(-c2ccc(I)cc2)nc2ccccc12.Cl
Ratio IC50 [3]: 2.07 10^6No_unit
Activity (A549 [6]): Non-Toxic
Activity (HEK-293T): Non-Toxic
Activity (A549 [7]): 26.15%
